Test results published in PMC8038958 (The AAPS Journal, 2021).

Assay: Population pharmacokinetic analysis (NONMEM, two-compartment model) of vancomycin serum concentrations from routine TDM
[1] = structural base model without covariates, estimate (RSE %)

For `CN[C@H](CC(C)C)C(=O)N[C@H]1C(=O)N[C@@H](CC(N)=O)C(=O)N[C@H]2C(=O)N[C@H]3C(=O)N[C@H](C(=O)N[C@H](C(=O)O)c4cc(O)cc(O)c4-c4cc3ccc4O)[C@H](O)c3ccc(c(Cl)c3)Oc3cc2cc(c3O[C@@H]2O[C@H](CO)[C@@H](O)[C@H](O)[C@H]2O[C@H]2C[C@](C)(N)[C@H](O)[C@H](C)O2)Oc2ccc(cc2Cl)[C@H]1O` [Vancomycin], the “estimated exponent of TBW on V1 and V2” value (alternative model with power function instead of linear TBW, not retained) was 1.05, the CL (structural base model without covariates, 1892 children 1-18 years, normal weight, overweight, obese, intermittent i.v. infusion, estimate (RSE %)) was 2.17 (2) L/h and the “Q (inter-compartmental clearance between V1 and V2)” value [1] was 2.24 (4) L/h. The “V1 (volume of distribution of central compartment)” value [1] was 5.27 (8) L and the “V2 (volume of distribution of the peripheral compartment)” value [1] was 11.9 (8) L.
